Data on two compounds can be found in US11846640B2, “Identification of anticoagulants in a sample” (DSM IP Assets B.V., priority 2013, dated 2023).

Holding throughout (assay type): biochemical, human
For test [1], the system named is plasma samples. Put plainly: PT (HemosIL PT recombiplastin) clotting time. Particulars: for Clotting time with PT: Table 6, spiked plasma, mean. The protocol:
(§1) In order to address the above question, i.e. to determine the nature of an anticoagulant in a sample, a combination of several methods has to be performed, including PiCT® Method 1, PiCT® Method 4, aPTT (HemosIL™ aPTT SP), PT (HemosIL™ PT recombiplastin), and sometimes even a modified PiCT® Method 1 wherein polybrene has been added. In order to simulate this, plasma samples spiked with different levels of anticoagulants were analyzed using the ACL TOP® 500 analyzer.

Test [2] concerns plasma samples. Nature of the test: PiCT Method 1 with polybrene added, clotting time. Particulars: Table 6, spiked plasma, mean.
Excerpt: By the addition of polybrene a distinction can be done, which of the anticoagulants is really present in the sample: if after addition of polybrene the measured clotting times are again back to RR when using the PiCT® Method 1, the sample comprises heparins, such as e.g. UFH or LMWH. Alternatively, if the result is not going back to RR, the sample comprises low concentrations of dabigatran or hirudin. […] The particular clotting times measured for the different anticoagulants are shown in Table 6, which is an example of results obtained in spiked plasma samples.
as §1, with “analyzer. For each drug, a specific pattern was obtained, i.e. clotting times within the RR and clotting times above the RR, depending on the used testing method, which is unique at least for the class of anticoagulant or even for a specific anticoagulant.” for “analyzer.”

The test system of test [3] is normal plasma pool (NPP). Nature of the test: PiCT Method 3 clotting time on ACL TOP 500. The settings on record: Table 8B (argatroban), PiCT Method 3, NPP spiked, mean n = 4. The source says: The 4 methods (see above) are in more detail described in the Examples. Specific pipetting schemes were designed using NPP spiked with incremental amounts of anticoagulants in order to achieve high reproducibility of the test system, which is required for drug identification including use in a POC system. […] […]-50/I-180/50-S). […] […]-65/I-180/35-S on the ACL TOP® 500 or […]-65/I-180/40-S on the STA Compact® or […]-65/[…]-40 on the BCS® XP. […] […]-70/I-180/40-S on the ACL TOP® 500 or STA Compact®, or […]-60/I-180/45-S on the BCS® XP.

In the case of `CC1CNc2c(cccc2S(=O)(=O)N[C@@H](CCCNC(=N)N)C(=O)N2CC[C@@H](C)C[C@@H]2C(=O)O)C1` (some centres unmarked) [argatroban], the “Clotting time with PT” value in test [1] (0.3 μg) came to 15.0 s; in test [1] (1.5 μg) it was 31.2 s. Further, the “Clotting time with PiCT ® Method 1 + polybrene” value in test [2] (0.3 μg) stood at 85.6 s; in test [2] (1.5 μg), 126.4 s. For the same compound, the Clotting time in test [3] (0.2 μg/ml) turned out to be 113 s; in test [3] (0.4 μg/ml) it was 145 s; in test [3] (0.6 μg/ml), 162 s; in test [3] (0.8 μg/ml), 179 s; in test [3] (1.0 μg/ml) it was 198 s; in test [3] (1.2 μg/ml) it was 204 s. Also, the Clotting time came out at 210 s in test [3] (1.4 μg/ml), 232 s in test [3] (1.6 μg/ml), 234 s in test [3] (1.8 μg/ml) and 240 s in test [3] (2.0 μg/ml).
In the case of `O=C(NC[C@H]1CN(c2ccc(N3CCOCC3=O)cc2)C(=O)O1)c1ccc(Cl)s1` [rivaroxaban], the “Clotting time with PT” value stood at 12.2 s in test [1] (50 ng) and 20.3 s in test [1] (200 ng). Also, the “PT clotting time relative to reference range (RR)” value in test [1] (only at higher doses, in the range of 200 ng or more) is listed as “above the RR”.
